Values after ≈ are worked out from the molar mass of the structure shown.
How the values were obtained:
MGAT3 = MGAT3 transcription ratio, AD patient / control PBMCs (qPCR); format: cell-based, human; design: key: Dash (−) indicates minimal effect; (+) indicates a ratio of 1.0-1.5; (++) indicates a ratio of 1.5-2.0; (+++ to ++++) indicates a ratio of 2.0 and above; (+++ to ++++) indicates a ratio of 2.0 and above; conditions: Aβ stimulation
Procedure: (§1) qPCR reactions of cultured monocyte cDNAs. One μL total cellular cDNA per reaction is used in triplicate reactions for each test gene, and for each culture treatment. SYBR-Green reactions were run on a Continuous Fluorescence real-time thermocycler and analyzed. Cycle threshold (Ct) values are recorded for each replicate reaction, and are then averaged and normalized against mean Ct values from one or more control genes. Fold-expression differences relative to untreated cells are determined using the 2^−ΔΔCt method as previously described. Data from the curcumin concentration range are plotted in order to determine EC50 values (concentrations producing one-half maximal stimulant activity), which are used for comparisons of potency between different compounds. Data are also evaluated for each gene with regard to sensitivity, maximally effective concentration of curcuminoid, response to Aβ, and overall magnitude of fold-expression changes.
(§2) MGAT3 and/or TLR transcription were tested by qPCR in human monocyte cells treated with curcuminoids and compared the results to those treated with vehicle (Table 7). As discussed above, activation or up-regulation of macrophage MGAT3 or TLR's results in many functional outcomes, including the enhancement of […] and removal of Aβ, increased apoptosis, secretion of inflammatory cytokines, and other anti-AD antimicrobial activities. […] Thus, the ratio of MGAT3 or TLR transcription upon Aβ stimulation of human monocytes versus vehicle treatment provides an indicator and sensitive method to test the in vitro efficacy of drug candidates. […] The relative biological activity of the curcumin analogs in AD patient and control cells was ascertained in the in vitro Aβ assay described above (see Example 2).

[1] = Metabolic stability in human S9 fraction; format: in vitro ADME; conditions: read-out: Half life, t1/2 S9
[2] = Chemical stability (H2O, pH 7.4); format: physicochemical
[3] = Metabolic stability in human liver microsomes; format: in vitro ADME; conditions: read-out: Half life, t1/2 HLM
TLR 4 = TLR 4 transcription ratio, AD patient / control PBMCs (qPCR); format: cell-based, human; conditions: Aβ stimulation
Procedure: as §1, §2

TLR 3 = TLR 3 transcription ratio, AD patient / control PBMCs (qPCR); format: cell-based, human; conditions: Aβ stimulation
Procedure: as §1, §2

TLR 2 = TLR 2 transcription ratio, AD patient / control PBMCs (qPCR); format: cell-based, human; conditions: Aβ stimulation
Procedure: as §1, §2

Average solubility = format: physicochemical
[4] = water (aqueous solution), pH 7.4, read-out: Chemical stability t1/2 pH 7.4 (converted)
[5] = water, H2O, read-out: Chemical stability t1/2 H2O (converted)

Structure (SMILES) | Relative ratio of MGAT3 transcription in AD patient / control PBMC's (MGAT3) | half-life [1] [min] | IC50 (Anti-oxidant activity) [µM] | half-life ([3]; human) [min] | also measured
CC(C)(C)C(=O)Oc1ccc(/C=C/C(=O)/C=C(O)/C=C/c2ccc(OC(=O)C(C)(C)C)cc2)cc1 [Compound 18, 2,2-Dimethyl-propionic acid 4-{7-[4-(2,2-dimethyl-propionyloxy)-phenyl]-3,5-dioxo-hepta-1,6-dienyl}-phenyl ester] | − |  |  |  | 
O=C(/C=C(O)/C=C/c1ccccc1)/C=C/c1ccccc1 [Compound 27, 5-Hydroxy-1,7-diphenylhepta-1,4,6-trien-3-one] | + ((+) indicates a ratio of 1.0-1.5) |  |  |  | 
NCCCCC(N)C(=O)Oc1ccc(/C=C/C(=O)C2CCC/C(=C\c3ccc(OC(=O)C(N)CCCCN)cc3)C2=O)cc1 (centres unmarked) [Compound 38] | + ((+) indicates a ratio of 1.0-1.5) | 33.6 | > 250 |  | Chemical stability H2O (stable/unstable) ([2]; H2O): unstable (stability half-lives less than 5 minutes); Chemical stability pH 7.4 (stable/unstable) ([2]; pH 7.4): unstable (stability half-lives less than 5 minutes); half-life ([3]; value given in h): > 60 min
CC/C(C(=O)/C=C/c1ccc(N(C)C)cc1)=C(O)\C=C\c1ccc(N(C)C)cc1 [Compound 9, 1,7-bis(4-Dimethylaminophenyl)-4-ethyl-hepta-1,6-diene-3,5-dione] |  |  | 55.3 |  | 
O=C(/C=C(O)/C=C/c1ccc(O)c(Cl)c1)/C=C/c1ccc(O)c(Cl)c1 [Compound 24, 1,7-bis-(3-Chloro-4-hydroxyphenyl)-5-Hydroxy-hepta-1,4,6-trien-3-one] | − |  |  |  | 
COc1ccccc1/C=C/C(=O)/C=C(O)/C=C/c1ccccc1OC [Compound 25, 5-Hydroxy-1,7-bis-(2-methoxyphenyl)-hepta-1,4,6-trien-3-one] | ++++ ((+++ to ++++) indicates a ratio of 2.0 and above) | 10.9 |  | 72.8 | Relative ratio of TLR 4 transcription in AD patient / control PBMC's (TLR 4): TLR 4 + ((+) indicates a ratio of 1.0-1.5); Relative ratio of TLR 3 transcription in AD patient / control PBMC's (TLR 3): TLR 3 ++ ((++) indicates a ratio of 1.5-2.0); Relative ratio of TLR 2 transcription in AD patient / control PBMC's (TLR 2): TLR 2 +++ ((+++ to ++++) indicates a ratio of 2.0 and above)
COc1ccc(/C=C/C(=O)/C=C(O)/C=C/c2ccc(OC)c(O)c2)cc1O [Compound 21, 5-Hydroxy-1,7-bis-(3-hydroxy-4-methoxyphenyl)-hepta-1,4,6-trien-3-one] | + ((+) indicates a ratio of 1.0-1.5) | 6.6 |  | 5 | 
COc1ccc(F)cc1/C=C/C(O)=C1\CCC/C(=C\c2cc(F)ccc2OC)C1=O [Compound 11] | + ((+) indicates a ratio of 1.0-1.5) |  | > 250 |  | 
CC(C)C(N)C(=O)Oc1ccc(/C=C/C(=O)C2CCC/C(=C\c3ccc(OC(=O)C(N)C(C)C)cc3)C2=O)cc1 (centres unmarked) [Compound 37] | ++ ((++) indicates a ratio of 1.5-2.0) | 33.2 | > 250 |  | half-life [2, 4]: < 16 min; half-life [2, 5]: 95.9 min; half-life ([3]; value given in h): > 60 min
NCCCCC(N)C(=O)Oc1ccc(/C=C/C(=O)/C=C(O)/C=C/c2ccc(OC(=O)C(N)CCCCN)cc2)cc1 (centres unmarked) [Compound 34, 4,4′-(3,5-Dioxohepta-1,6-diene-1,7-diyl)bis(4,1-phenylene) bis(2,6-diaminohexanoate)] | ++ ((++) indicates a ratio of 1.5-2.0) | 4.5 | > 250 | 19.9 | Relative ratio of TLR 4 transcription in AD patient / control PBMC's (TLR 4): TLR 4 + ((+) indicates a ratio of 1.0-1.5); Relative ratio of TLR 3 transcription in AD patient / control PBMC's (TLR 3): TLR 3 ++ ((++) indicates a ratio of 1.5-2.0); Chemical stability pH 7.4 (stable/unstable) ([2]; pH 7.4): unstable^b (stability half-lives less than 5 minutes); half-life [2, 5]: 10.2 min; Relative ratio of TLR 2 transcription in AD patient / control PBMC's (TLR 2): TLR 2 +++ ((+++ to ++++) indicates a ratio of 2.0 and above)
CN(C)c1ccc(/C=C/C(=O)/C=C(O)/C=C/c2ccc(N(C)C)cc2)cc1 [Compound 20, 1,7-bis-(4-Dimethylaminophenyl)-5-hydroxy-hepta-1,4,6-trien-3-one] | ++++ ((+++ to ++++) indicates a ratio of 2.0 and above) | 22.7 |  | 41.5 | Chemical stability H2O (stable/unstable) ([2]; H2O): stable (stability half-lives greater than 5 hours); Chemical stability pH 7.4 (stable/unstable) ([2]; pH 7.4): stable (stability half-lives greater than 5 hours); solubility (Average solubility): 0.23 µg/mL (≈ 0.635 µM)
COc1ccc(/C=C/C(=O)/C=C(O)/C=C/c2ccc(OC)cc2)cc1 [Compound 16, 5-Hydroxy-1,7-bis-(4-methoxy-phenyl)-hepta-1,4,6-trien-3-one] | − | 10.9 |  | 9 | 
COc1ccc(F)cc1/C=C/C(O)=C/C(=O)/C=C/c1ccc(N(C)C)cc1 [Compound 31] | ++ ((++) indicates a ratio of 1.5-2.0) |  |  |  | Relative ratio of TLR 4 transcription in AD patient / control PBMC's (TLR 4): TLR 4 ++ ((++) indicates a ratio of 1.5-2.0); Relative ratio of TLR 3 transcription in AD patient / control PBMC's (TLR 3): TLR 3 ++ ((++) indicates a ratio of 1.5-2.0); Relative ratio of TLR 2 transcription in AD patient / control PBMC's (TLR 2): TLR 2 ++ ((++) indicates a ratio of 1.5-2.0)
O=C(/C=C(O)/C=C/c1cccc(O)c1)/C=C/c1cccc(O)c1 [Compound 19, 5-Hydroxy-1,7-bis-(3-hydroxyphenyl)-hepta-1,4,6-trien-3-one] | + ((+) indicates a ratio of 1.0-1.5) | 6.6 |  | 13.3 | half-life [2, 4]: 66.2 min; half-life [2, 5]: 22.8 min
Cc1ccc(/C=C/C(=O)/C=C(O)/C=C/c2ccc(C)cc2)cc1 [Compound 28, 5-Hydroxy-1,7-ditolylhepta-1,4,6-trien-3-one] | ++ ((++) indicates a ratio of 1.5-2.0) |  |  |  | 
CC(=O)Oc1ccc(/C=C/C(=O)/C=C(O)/C=C/c2ccc(OC(C)=O)cc2)cc1 [Compound 17, Acetic acid 4-[7-(4-acetoxy-phenyl)-5-hydroxy-3-oxo-hepta-1,4,6-trienyl]-phenyl ester] | − |  |  |  | 
O=C1C(=Cc2ccc(O)cc2)COCC1=Cc1ccc(O)cc1 [Compound 15, 3,5-bis(4-Hydroxybenzylidene)dihydro-2H-pyran-4(3H)-one] |  |  | > 250 |  | 
CSc1ccc(/C=C/C(=O)/C=C(O)/C=C/c2ccc(SC)cc2)cc1 [Compound 29, 1,7-bis(4-Methylthiophenyl)-5-hydroxyhepta-1,4,6-trien-3-one] | ++++ ((+++ to ++++) indicates a ratio of 2.0 and above) | 75.4 |  | 97.1 | 
O=C(/C=C(\O)CCc1ccc(O)cc1)CCc1ccc(O)cc1 [Compound 5, 5-Hydroxy-1,7-bis(4-hydroxyphenyl)hept-4-en-3-one] |  |  | > 250 |  | Avg. Solubility (Average solubility): insol
COc1cc(O)ccc1/C=C/C(=O)/C=C(O)/C=C/c1ccc(O)cc1OC [Compound 22, 5-Hydroxy-1,7-bis-(4-hydroxy-2-methoxyphenyl)-hepta-1,4,6-trien-3-one] | ++ ((++) indicates a ratio of 1.5-2.0) | 2.4 |  | 31.5 | 
CC(C)(C)c1ccc(/C=C/C(=O)/C=C(O)/C=C/c2ccc(C(C)(C)C)cc2)cc1 [Compound 30, 1,7-bis(4-tert-Butylphenyl)-5-hydroxyhepta-1,4,6-trien-3-one] | + ((+) indicates a ratio of 1.0-1.5) |  | > 250 |  | Relative ratio of TLR 4 transcription in AD patient / control PBMC's (TLR 4): TLR 4 + ((+) indicates a ratio of 1.0-1.5); Relative ratio of TLR 3 transcription in AD patient / control PBMC's (TLR 3): TLR 3 ++ ((++) indicates a ratio of 1.5-2.0); Relative ratio of TLR 2 transcription in AD patient / control PBMC's (TLR 2): TLR 2 + ((+) indicates a ratio of 1.0-1.5)
O=C1/C(=C(O)/C=C/c2ccc(O)cc2)CCC/C1=C\c1ccc(O)cc1 [Compound 6, 2-(4-Hydroxybenzylidene)-6-(3-(4-hydroxyphenyl)acryloyl)cyclohexanone] | +++ ((+++ to ++++) indicates a ratio of 2.0 and above) | 35.2 | > 250 | 60.6 | half-life [2, 4]: 436 min; half-life [2, 5]: 244 min
CC/C(C(=O)/C=C/c1ccc(N(C)C)cc1OC)=C(O)\C=C\c1ccc(N(C)C)cc1OC [Compound 13, 1,7-Bis(4-(dimethylamino)-2-methoxyphenyl)-4-ethyl-hepta-1,6-diene-3,5-dione] |  |  | 67.4 |  | 
